# Reference: patent US20220160686A1, “MACROCYCLIC AZOLOPYRIDINE DERIVATIVES AS EED AND PRC2 MODULATORS” (Fulcrum Therapeutics, Inc., priority 2019, published 2022)
# Where “and” joins values, the source holds several entries; their conditions need not be identical. Equal entries are not always repeated. Where two headings read alike, the source gives them in different places.
# Experiments:
# [1] = test system: human P-glycoprotein HEK cells (HEK-P-gp); assay: H3K27me3 immunocytochemistry assay in P-gp expressing HEK293T cells, with or without elacridar; format: cell-based; conditions: Homo sapiens, 4 days compound treatment
# Procedure: A plasmid encoding the human ABCB1 gene under the control of a CMV promoter was purchased from Origene (Cat #RC216080). The HEK293T cells were purchased from ATCC (Cat #CRL-3216) and were cultured for expansion in the recommended conditions. The HEK293T cells were transfected with 2 ug of the pCMV-ABCB1 plasmid using Lipofectamine 3000 following recommendations from the manufacturer (ThermoFisher Scientific, Cat #L3000008). After 24 h, cells were dissociated, and 5000 cells were seeded on a 10 cm tissue culture dish. On the next day, fresh media containing 5 nM Vinblastine (Sigma, Cat #V1377) was added, and media containing compound was replenished every 72 h. After surviving cells reached confluency, cells were passaged, and lines were maintained in the presence of 2.5 nM Vinblastine until further characterization.
# P-gp expressing HEK293T, HUDEP2, and Human Mobilized Peripheral Blood Primary CD34+ cells were cultured for use in an H3K27me3 immunocytochemistry assay. HUDEP2 and Human Mobilized Peripheral Blood Primary CD34+ cells were cultured for use in an HbF immunocytochemistry assay. P-gp expressing HEK293T cells were maintained and passaged every 3-4 days by plating 300,000 viable cells in a T-25 culture flask containing 6 mLs of 293 Passaging Media comprised of DMEM (ThermoFisher #10566016), 10% fetal bovine serum (ThermoFisher #A3160502), 1% penicillin-streptomycin (ThermoFisher #15140122), and 2.5 nM Vinblastine (Sigma #V1377). To evaluate the inhibitory effect of the compounds of the present disclosure and their brain penetrant properties via P-gp mediated efflux, the H3K27me3 immunocytochemistry assay was conducted in the presence or absence of 250 nM of the P-gp inhibitor, elacridar. Poor brain penetrant compounds were expected to show higher potencies in the presence of Elacridar. However, brain penetrant compounds would show similar potencies irrespective of whether Elacridar is present or not. In these experiments plates without elacridar were seeded with P-gp expressing HEK293T cells at 1000 viable cells per well in a poly-d-lysine coated 384-well plate (Corning Cat #356697) in 45 μL of 293 Assay Media comprised of DMEM (ThermoFisher #10566016), 10% fetal bovine serum (ThermoFisher #A3160502), 1% penicillin-streptomycin (ThermoFisher #15140122). A replicate set of plates were seeded under the same conditions with 45 μL of 293 Assay Media supplemented with 250 nM of Elacridar to inhibit P-gp activity. Compounds were serially diluted at 10× concentration in 293 Media, and 5 μL transferred to their respective wells on both sets of plates for a total volume of 50 μL per well. The compound treated HEK293T cells were allowed to incubate for 4 days at 37° C., 85% relative humidity, and 5% CO2 before proceeding to ICC Fix and Stain protocol.
# The Fix and Stain Protocol was the same for HEK293T, HUDEP2, and Primary CD34+ cell assays except the specific primary and secondary antibodies used for detection. Following 4 days of compound treatment, the respective plates were washed once with 25 μL of PBS (ThermoFisher #10010023) and fixed with 25 μL of 4% paraformaldehyde (ThermoFisher #28908) for 10 minutes at room temperature. The plates were then washed three times with 25 μL of PBS. Subsequent to that, the cells were permeabilized and blocked for 1 hour at room temperature in 25 μL of Perm/Block buffer comprised of IX PBS, 1% bovine serum albumin (ThermoFisher #A3294), 10% fetal bovine serum (ThermoFisher #A3160502), 0.3M glycine (Sigma #G7126), and 0.1% tween-20 (Sigma #P7949). This was followed by additional washing (three times) of the plates with 25 μL of 0.1% tween in PBS.
# For the H3K27me3 assay, the cells were incubated overnight at 4° C. with 25 μL of H3K27me3 Primary Antibody (Cell Signaling #9733) diluted 1:200 in 0.1% tween-20 in PBS. […]
# [2] = target: T1, biotinylated AVI-tagged EED (76-441) (Homo sapiens, UniProt O75530); assay: EED binding SPR assay; conditions: 1:1 binding model; read-out: KD, equilibrium dissociation constant as measured by surface plasmon resonance (SPR)
# T1 construct: GST (N, cleaved yes); made in house; host or cells: E. coli BL21(DE3), co-expressed with pGro7
# Procedure: Biotinylated AVI-tagged EED was produced using standard molecular biology techniques. A pGEX plasmid with a GST-preScission-cleavage-site-AVI-EED(76-441) sequence was placed into E. coli BL21(DE3) cells and co-expressed with pGro7. The E. coli were grown in shaker flasks in LB with ampicillin at 37° C. at 110 rpm to an OD600=0.7. At this time the temperature was lowered to 15° C. and IPTG was added to 0.3 mM. The cells were allowed to express overnight. Cells were then harvested.
# For purification, the E. coli cell pellet was lysed into a buffer of 50 mM Tris pH 8.0, 500 mM NaCl, 5% glycerol and 5 mM DTT. The lysate was loaded onto a GSTrap FF column from GE Healthcare. After washing, the bound protein was eluted with 50 mM Tris pH 8.0, 500 mM NaCl, 5% glycerol, 5 mM DTT and 15 mM GSH. The collected fractions were combined and incubated with PreScission enzyme overnight at 4° C. The cleaved protein was then passed through a GSTrap FF column in a buffer of 50 mM Tris pH 8.0, 500 mM NaCl, 5% glycerol and 5 mM DTT. The cleaved protein was confirmed through mass spectrometry. The AVI-EED(76-441) was then buffer exchanged into 50 mM Bicine pH 8.3, 10 mM ATP, 10 mM magnesium acetate and 50 μM D-Biotin. 3 mg of BirA enzyme was added to the system and incubated at 4° C. for 2 hours to biotinylate the AVI-EED(76-441). The biotinylated-AVI-EED(76-441) was then buffer exchanged into 20 mM Tris pH 8.0 and 400 mM NaCl and passed through a size exclusion column of Superdex 200 16/60 Increase. The purified monomeric biotinylated-AVI-EED(76-441) was confirmed through SDS-PAGE, LC-MS and analytical size exclusion chromatography.
# All surface plasmon resonance (SPR) assays were performed using a GE Biacore S200 utilizing GE Biotin CAPture chips. Capturing of CAP reagents was performed with a flow rate of 2 μL/min for 90 seconds. For protein capturing, a solution of 50 μg/mL of biotinylated AVI-tagged EED (76-441) in 10 mM HEPES pH 7.4, 150 mM NaCl, 0.05% Tween 20 and 2% DMSO (Running Buffer) was flowed over the chip with a flow rate of 5 μL/min for a contact time of 30 seconds. Final readings were 2200-2400 RU. For compounds, 7 concentrations were made with 3-dilutions using the Running Buffer for a total of 300 μL of each concentration in a 96-well microplate. During the binding experiments, a flow rate of […] was used for an association time of 90 seconds followed by a disassociation time of 180 seconds. The compartment temperature was set at 10° C. with the chip at 25° C. During regeneration the flow rate was set to 30 μL/min for 30 seconds. All fittings were done using a 1:1 binding model.
# [3] = HEK293, 96 h, without elacridar, read-out: IC50, inhibitory activity on human P-glycoprotein HEK cells (HEK-P-gp)
# [4] = HEK293, with 250 nM elacridar, read-out: IC50, inhibitory activity on human P-glycoprotein HEK cells (HEK-P-gp) pretreated with elacridar
# T1 sequence (O75530 76-441 limits assumed): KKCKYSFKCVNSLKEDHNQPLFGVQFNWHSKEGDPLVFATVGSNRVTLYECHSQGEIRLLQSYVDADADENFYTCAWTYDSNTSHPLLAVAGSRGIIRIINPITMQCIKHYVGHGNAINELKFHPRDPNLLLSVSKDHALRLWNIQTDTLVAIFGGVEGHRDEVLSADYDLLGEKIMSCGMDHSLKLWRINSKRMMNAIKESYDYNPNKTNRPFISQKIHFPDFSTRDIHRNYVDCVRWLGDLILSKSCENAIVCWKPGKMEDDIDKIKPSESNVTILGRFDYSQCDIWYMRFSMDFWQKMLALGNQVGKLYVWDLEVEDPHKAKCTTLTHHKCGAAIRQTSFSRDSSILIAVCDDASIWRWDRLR
SMILES,Kd [2],"IC50 [1, 3] [nM]","IC50 [1, 4] [nM]"
Cc1ccc(C(F)F)c(-c2cc3c(n4cnnc24)NCc2c(F)ccc4c2[C@@H](CO4)CO3)n1 [Compound 144],2.5 to 5 nM,100 to 500,100 to 500
"CNC(=O)CCc1ccc(-c2cc3c(n4cnnc24)NCc2c(F)ccc4c2C(CO4)CO3)c(C)n1 [Compound 191, (S)-3-(5-(12-fluoro-7a,8,13,14-tetrahydro-7H-[1,2,4]triazolo[4′,3′:1,6]pyrido[3,2-b]benzofuro[4,3-fg][1,4]oxazonin-4-yl)-6-methylpyridin-2-yl)-N-methylpropanamide]",< 2.5 nM,50 to 100,100 to 500
"Cc1ccnc(-c2cc3c(n4cnnc24)NCc2c(F)ccc4c2C(CO4)CO3)c1 (stereo in doubt) [Compound 149, (S)-12-fluoro-4-(4-methylpyridin-2-yl)-7a,8,13,14-tetrahydro-7H-[1,2,4]triazolo[4',3':1,6]pyrido]3,2-b]benzofuro[4,3-fg][1,4]oxazonine]",10 to 50 nM,> 500,> 500
"COc1cccnc1-c1cc2c(n3cnnc13)NCc1c(F)ccc3c1[C@@H](CO3)CO2 [Compound 159, (S)-12-fluoro-4-(3-methoxypyridin-2-yl)-7a,8,13,14-tetrahydro-7H-[1,2,4]triazolo[4′,3′:1,6]pyrido[3,2-b]benzofuro[4,3-fg][1,4]oxazonine]",10 to 50 nM,> 500,> 500
"Cc1nc(C2CC2)ncc1-c1cc2c(n3cnnc13)NCc1c(F)ccc3c1[C@@H](CO3)CO2 [Compound 190, (S)-4-(2-cyclopropyl-4-methylpyrimidin-5-yl)-12-fluoro-7a,8,13,14-tetrahydro-7H-[1,2,4]triazolo[4′,3′:1,6]pyrido[3,2-b]benzofuro[4,3-fg][1,4]oxazonine]",< 2.5 nM,< 25,< 25
"Cn1ncc(C#N)c1-c1cc2c(n3cnnc13)NCc1c(F)ccc3c1C(CO3)CO2 [Compound 170, (S)-5-(12-fluoro-7a,8,13,14-tetrahydro-7H-[1,2,4]triazolo[4′,3′:1,6]pyrido[3,2-b]benzofuro[4,3-fg][1,4]oxazonin-4-yl)-1-methyl-1H-pyrazole-4-carbonitrile]",< 2.5 nM,100 to 500,100 to 500
"Cn1nccc1-c1cc2c(n3cc(C(=O)O)nc13)NCc1c(F)ccc3c1[C@@H](CO3)CO2 [Compound 174, (S)-5-fluoro-12-(1-methyl-1H-pyrazol-5-yl)-6,7,15,15a-tetrahydro-1H-benzofuro[4,3-fg]imidazo[r,2′:1,6]pyrido[3,2-b][1,4]oxazonine-10-carboxylic acid]",5 to 10 nM,–,–

# Second part, led by results:
Kd [2],SMILES,"IC50 [1, 3] [nM]","IC50 [1, 4] [nM]"
10 to 50 nM and < 2.5 nM,"Cn1nc(O)cc1-c1cc2c(n3cnnc13)NCc1c(F)ccc3c1C(CO3)CO2 [Compound 197, (S)-5-(12-fluoro-7a,8,13,14-tetrahydro-7H-[1,2,4]triazolo[4′,3′:1,6]pyrido[3,2-b]benzofuro[4,3-fg][1,4]oxazonin-4-yl)-1-methyl-1H-pyrazol-3-ol]",< 25,50 to 100
2.5 to 5 nM,Fc1ccc2c3c1CNc1c(cc(-c4ccc(C(F)(F)F)nc4)c4nncn14)OC[C@H]3CO2 [Example 112],100 to 500,100 to 500
< 2.5 nM,"CC(=O)N1CC=C(c2cc3c(n4cnnc24)NCc2c(F)ccc4c2[C@@H](CO4)CO3)CC1 [Compound 193, (S)-1-(4-(12-fluoro-7a,8,13,14-tetrahydro-7H-[1,2,4]triazolo[4′,3′:1,6]pyrido[3,2-b]benzofuro[4,3-fg][1,4]oxazonin-4-yl)-3,6-dihydropyridin-1(2H)-yl)ethan-1-one]",25 to 50,50 to 100
10 to 50 nM,Fc1ccc2c3c1CNc1c(cc(-c4ccc(C(F)(F)F)cn4)c4nncn14)OCC3CO2 (stereo not shown) [Example 113],> 500,> 500
< 2.5 nM,Fc1ccc2c3c1CNc1c(cc(-c4cnc(C(F)(F)F)nc4)c4nncn14)OC[C@H]3CO2 [Example 114],100 to 500,100 to 500
2.5 to 5 nM,COc1ncc(F)cc1-c1cc2c(n3cnnc13)NCc1c(F)ccc3c1[C@H](CO3)CO2 [Example 111],100 to 500,100 to 500
< 2.5 nM,COc1ccc(-c2cc3c(n4cnnc24)NCc2c(F)ccc4c2[C@H](CO4)CO3)c(C)n1 [Example 106],50 to 100,25 to 50
< 2.5 nM,"Cc1ncc(O)cc1-c1cc2c(n3cnnc13)NCc1c(F)ccc3c1[C@@H](CO3)CO2 [Compound 194, (S)-5-(12-fluoro-7a,8,13,14-tetrahydro-7H-[1,2,4]triazolo[4′,3′:1,6]pyrido[3,2-b]benzofuro[4,3-fg][1,4]oxazonin-4-yl)-6-methylpyridin-3-ol]",50 to 100,50 to 100
< 2.5 nM,CN1CCN(c2ccc(-c3cc4c(n5cnnc35)NCc3c(F)ccc5c3[C@H](CO5)CO4)cn2)CC1 [Example 117],100 to 500,50 to 100
< 2.5 nM,CCOc1ncc(-c2cc3c(n4cnnc24)NCc2c(F)ccc4c2[C@H](CO4)CO3)cn1 [Example 109],100 to 500,100 to 500
